Legend:
Type in all cases: cell-based
mCherry-GAL9 cells = experiment: mCherry-GAL9 assay in live cells for 4 hours, screening; details: 5 μM (FIG. 6-8)
Procedure: (§1) Cells were subjected to a 10-point concentration dilution (0-15 μM) for 2 hours and then fixed and imaged (FIG. 3 and FIG. 4). Images were analyzed and curves were generated from both mCherry-GAL9 puncta quantitation and cell survival as determined by nuclear morphology (FIG. 5). The GAL9 recruitment response support the functional splice-switching data with SSOs, confirming the mCherry-GAL9 assay as a powerful tool for screening endosomolytic compounds and supporting the hypothesis that AZ2467 (Compound 6) and AZ4800 (Compound 2) promote SSO activity by inducing endosomal rupture. The GAL9 assay was again conducted, this time in live cells for 4 hours with select compounds for screening. Compounds were screened at 5 μM (FIG. 6-8) or 0.3125-10 μM (FIG. 35-38). FIG. 39 and FIG. 47 provide results for select compounds at various doses 0.3125-10 μM.

HeLa mCherry-Gal9 cells = experiment: mCherry-GAL9 recruitment assay; details: for quantitation of Gal9 recruitment over time / window in concentration between induction of endosomal rupture and cytotoxicity: HeLa; for quantitation of Gal9 recruitment over time: FIG. 8; for relocalisation of Gal9 from cytosolic to punctate: 10-point dose titration, 2 hours, FIG. 3; for window in concentration between induction of endosomal rupture and cytotoxicity: FIG. 5
Text: (§2) All compounds were subjected to a mCherry-GAL9 recruitment assay. Under normal conditions, mCherry-GAL9 is homogenously dispersed in the cytosol. When an endosomal leakage event is detected, mCherry-GAL9 translocates to the damaged endosome (Du Rietz et al. (2020) Nat. Commun. 11:1809) The resulting localization pattern of discrete puncta can be visualized and quantitated.
(§3) HeLa and Huh7 cell lines stably expressing mCherry-GAL9 were generated as described by (bioRxiv) (Munson, M. et al. (2021) Communications Biology, 4(211): 1-14) and seeded into 384-well CellCarrier Ultra plates (PerkinElmer: 6007558) at 3000 or 3500 cells/well respectively, 16 h before experimental usage.
(§4) Dose-response curves of select compounds were generated using an Echo 655T acoustic dispenser (Labcyte) to dispense the indicated compounds into source plates (Greiner: 781280) containing growth media. At experimental start points, media containing appropriate compounds and doses was transferred to plates using a liquid handling robot (Agilent Bravo).
(§5) At assay endpoints, cells were washed 2× PBS at RT and fixed in 4% PFA (VWR: 9713.1000) for 15 mins/RT. Cells were washed a further 3× PBS before the addition of PBS+1 μg/ml Hoechst 33342 (ThermoFisher Scientific: H21492) for a minimum of 1 h before imaging.
(§6) Plates were imaged using a spinning-disk confocal microscope (Yokogawa: CV7000) with a 20× objective (NA 0.75). Images were processed utilizing Columbus image-analysis software (PerkinElmer: v2.9.0) to identify and quantify cells and mCherry-GAL9 structures. The resulting data were processed and normalized in Spotfire (Tibco: v10.3) and plotted in Prism (Graphpad: v8.0.1). Image panels were assembled using the FigureJ plugin for FIJI. (Mutterer and Zinck (2013) J. Microsc. 252(1):89-91).
as §1

Huh7 mCherry-Gal9 cells = experiment: mCherry-GAL9 recruitment assay; details: for quantitation of Gal9 recruitment over time: Huh7, FIG. 7; for relocalisation of Gal9 from cytosolic to punctate: 10-point dose titration, 2 hours, FIG. 4; for window in concentration between induction of endosomal rupture and cytotoxicity: Huh7, FIG. 5
Text: as §2, §3, §4, §5, §6, §1

HeLa Luc705 cells = experiment: Splice switching activity assay (Luc705 luciferase reporter), Example 4A
Text: HeLa Luc705 and Huh7 Luc705 cells were used to screen and characterize the SMC generated in Example 2 for their ability to increase levels of an SSO-induced splice variant by co-treatment of the cells with the SSO and SMC. The Luc705 reporter construct was used for quantitation of luciferase protein produced as a result of functional SSO delivery. (Kang et al. (1998) Biochemistry, 37(18):6235-6239; Rocha et al. (2016) Four Novel Splice-Switch Reporter Cell Lines: Distinct Impact of Oligonucleotide Chemistry and Delivery Vector on Biological Activity. Nucleic Acid Ther. 26(6):381). Briefly, a plasmid carrying the luciferase coding sequence interrupted by an insertion of intron 2 from β-globin pre-mRNA carrying a cryptic splice site was stably transfected into cells. Unless the aberrant slice site was masked by an antisense oligonucleotide, the pre-mRNA of luciferase was improperly processed.
HeLa Luc705 and Huh7 Luc705 cells were seeded in 96-well plates at 10,000 cells per well in growth media containing 1 μM Luc705-SSO and incubated to allow adherence and oligo internalization. After 24 hours, 10 μl of SMC diluted in Growth Media (DMEM+10% FBS) was added into each well. After 2 hours, media was removed from the wells and replaced with fresh growth media for 4 hours to allow for translation of the variant proteins. The media was then removed, and cells were lysed with 0.1% Triton-PBS.
To detect luciferase activity, 30 μL of cell lysate was transferred to white-walled 96-well plates. Luciferase intensity in each well was measured using a GloMax® 96 Microplate Luminometer machine (Promega) following auto-injection of 25 μL Luciferin substrate (Firefly Luciferase Assay System: Promega) per well. Photon measurements were acquired for 10 seconds, starting 2 seconds after injection.
To determine whether AZ4800 (Compound 2, FIG. 1B) and SSO must be present in the cell media simultaneously for Compound 2 to produce its synergistic effects, the treatment plan was modified from the UNC2383 treatment plan detailed by Wang et al. (2017) ACS Chem. Biol. 12(8):1999-2007 to include a 24 hour pre-treatment with SSO, followed by the addition of Compound 2 for two hours, followed by the removal of SSO and Compound 2, and finally a 4-hour protein translation period (FIG. 10).

HeLa_Luc705 cells = experiment: Splice switching activity assay, 24 hr SMC treatment, Examples 4B/4D
Procedure: (§7) HeLa_Luc705 cells were seeded in 96-well plates at 10,000 cells per well in growth media with 2 μM Luc705-SSO or 1 μM Luc705-SSO. The various SMCs were diluted directly into prepared growth media. After 24 hr to allow adherence and SSO internalization, 10 μl of diluted SMC was added into each well at indicated concentrations. For a positive control, SSOs were complexed with Lipofectamine 2000 for 30 min at RT and cells treated with a final concentration of 200 nM. ON concentrations above 200 nM would require LF2000 to be used in excess of the cells' toxicity threshold. After 24 hr treatment, cells were lysed with 0.1% TritonX-100 (Sigma Aldrich, cat no. X100) in 1× PBS (Gibco, cat no. 10010023).
(§8) For the detection of luciferase activity, 30 μL of cell lysate was transferred to white-walled plates. The luciferase intensity in each well was immediately measured via luminometer following auto-injection of 25 μL Luciferin substrate as per the Promega Firefly Luciferase Assay System. The timing parameters of photon measurements were optimized for this procedure.
as §7, with “The” for “HeLa_Luc705 cells were seeded in 96-well plates at 10,000 cells per well in growth media with 2 μM Luc705-SSO or 1 μM Luc705-SSO. The”

U2OS_Luc705 cells = experiment: Splice switching activity assay, 24 hr SMC treatment, Examples 4C/4D; details: compounds at 5 μM, 1 μM Luc 705 SSO, FIG. 25A
Procedure: as §7, with “U2OS_Luc705 and N2A_Luc705” for “HeLa_Luc705”, “with” for “with 2 μM Luc705-SSO or”
as §8
as §7, with “The” for “HeLa_Luc705 cells were seeded in 96-well plates at 10,000 cells per well in growth media with 2 μM Luc705-SSO or 1 μM Luc705-SSO. The”

N2A_Luc705 cells = experiment: as above; details: compounds at 5 μM, 1 μM Luc 705 SSO, FIG. 25B
Procedure: as §7, with “U2OS_Luc705 and N2A_Luc705” for “HeLa_Luc705”, “with” for “with 2 μM Luc705-SSO or”
as §8
as §7, with “The” for “HeLa_Luc705 cells were seeded in 96-well plates at 10,000 cells per well in growth media with 2 μM Luc705-SSO or 1 μM Luc705-SSO. The”

## COc1ccc2c(-c3nc(Nc4cn(C5CCNCC5)nc4OC)ncc3Cl)c[nH]c2c1 [Compound 5]
mCherry-GAL9 cells
  GAL9 recruitment, reason for selection for further characterization: efficacy at shorter-term timepoints
HeLa mCherry-Gal9 cells
  quantitation of Gal9 recruitment over time: time-dependent endosomal rupture
Huh7 mCherry-Gal9 cells
  quantitation of Gal9 recruitment over time: time-dependent endosomal rupture

## CCOc1nn(C2CCNCC2)cc1Nc1ncc(Cl)c(-c2c[nH]c3ccccc23)n1 [Compound 6]
mCherry-GAL9 cells
  GAL9 recruitment, reason for selection for further characterization: efficacy at shorter-term timepoints
HeLa Luc705 cells; 5 μM compound, 1 μM SSO or 100 nM SSO, FIG. 2B
  increase in functional SSO activity: increase in activity
HeLa Luc705 cells; up to 6 hours at 10 μM, FIG. 11B
  increase in SSO activity: 200 fold
HeLa mCherry-Gal9 cells
  relocalisation of Gal9 from cytosolic to punctate: dose-dependent manner
  window in concentration between induction of endosomal rupture and cytotoxicity: narrow window
  quantitation of Gal9 recruitment over time: time-dependent endosomal rupture
Huh7 mCherry-Gal9 cells
  relocalisation of Gal9 from cytosolic to punctate: dose-dependent manner
  window in concentration between induction of endosomal rupture and cytotoxicity: narrow window
  quantitation of Gal9 recruitment over time: time-dependent endosomal rupture

## CCOc1nn(C2CCNCC2)cc1Nc1ncc(C(F)(F)F)c(-c2c[nH]c3ccccc23)n1 [Compound 7]
HeLa_Luc705 cells; 2 μM Luc 705 SSO, FIG. 26
  increase in SSO activity: induced an increase in SSO activity
HeLa_Luc705 cells; 2 μM SSO, FIG. 23A
  increase in SSO activity: increase in SSO activity

## COc1nn(C2CCN(C)CC2)cc1Nc1ncc(F)c(-n2ccc3c(C#N)cccc32)n1 [Compound 8]
U2OS_Luc705 cells
  increase in SSO activity relative to oligo only: induced an increase in SSO activity relative to oligo only
N2A_Luc705 cells
  increase in SSO activity relative to oligo only: induced an increase in SSO activity relative to oligo only
HeLa mCherry-Gal9 cells; doses 1.25-5 μM, 1, 2, 16 hours, FIG. 34
  GAL9 response, rank among exemplified compounds: second most potent
Huh7 mCherry-Gal9 cells; FIG. 40
  dose from which GAL9+ remodelling is induced: ≥ 2.5 µM
Huh7 mCherry-Gal9 cells; doses 1.25-5 μM, 1, 2, 16 hours, FIG. 33
  GAL9 response, rank among exemplified compounds: second most potent
HeLa_Luc705 cells; 2 μM Luc 705 SSO, FIG. 24
  increase in SSO activity: increase in SSO activity
HeLa_Luc705 cells; 2 μM Luc 705 SSO, FIG. 26
  increase in SSO activity: induced an increase in SSO activity

## COc1nn(C2CCNCC2)cc1Nc1ncc(C#N)c(-n2ccc3c(C(F)(F)F)cccc32)n1 [Compound 20]
U2OS_Luc705 cells
  increase in SSO activity relative to oligo only: induced an increase in SSO activity relative to oligo only

## CCOc1nn(C2CCNCC2)cc1Nc1ncc(F)c(-n2ccc3c(C#N)cccc32)n1 [Compound 21]
U2OS_Luc705 cells
  increase in SSO activity relative to oligo only: induced an increase in SSO activity relative to oligo only
N2A_Luc705 cells
  increase in SSO activity relative to oligo only: induced an increase in SSO activity relative to oligo only
HeLa_Luc705 cells; 2 μM Luc 705 SSO, FIG. 24
  increase in SSO activity: increase in SSO activity
HeLa_Luc705 cells; 2 μM Luc 705 SSO, FIG. 26
  increase in SSO activity: induced an increase in SSO activity

## COc1nn(C2CCNCC2)cc1Nc1ncc(F)c(-n2ccc3ccc(C#N)cc32)n1 [Compound 22]
U2OS_Luc705 cells
  increase in SSO activity relative to oligo only: induced an increase in SSO activity relative to oligo only
N2A_Luc705 cells
  increase in SSO activity relative to oligo only: induced an increase in SSO activity relative to oligo only

## COc1nn(C2CCNCC2)cc1Nc1ncc(F)c(-c2c[nH]c3cccc(C)c23)n1 [Compound 25]
U2OS_Luc705 cells
  increase in SSO activity relative to oligo only: induced an increase in SSO activity relative to oligo only

## O=C(Nc1nc2ccccc2n1CCN1CCCC1)c1cc2cc(Cl)ccc2o1 [UNC2383, reference compound]
HeLa mCherry-Gal9 cells
  relocalisation of Gal9 from cytosolic to punctate: dose-dependent manner
  window in concentration between induction of endosomal rupture and cytotoxicity: narrow window
Huh7 mCherry-Gal9 cells
  relocalisation of Gal9 from cytosolic to punctate: dose-dependent manner
  window in concentration between induction of endosomal rupture and cytotoxicity: narrow window
  quantitation of Gal9 recruitment over time: time-dependent endosomal rupture

— US20260137807A1, “COMPOSITIONS AND METHODS FOR DELIVERING A MACROMOLECULE TO A CELL” (AstraZeneca AB, priority 2022, published 2026)
